Laboratory results: patent US20050037990A1, “Disubstituted 7,9-guanines halides as telomerase inhibitors” (priority 2001, published 2005)

Target: T1, telomerase enzyme (Homo sapiens, UniProt O14746)
T1 construct: telomerase enzyme diluted in a buffer
Experiment: Flash Plate-based telomerase assay
Type: biochemical
Conditions: telomerase inhibition; two hours of incubation at 37°; Flash Plate hybridization readout
Source text: The telomerase activity of the compounds of the invention has been evaluated using a Flash Plate-based assay. […] Other methods for determining the inhibitory concentration of a compound of the invention against telomerase can be employed as will be apparent to a person skilled in the art based on the disclosure herein.
Briefly, the assay mixture is costituted by: • telomerase enzyme diluted in a buffer, the composition of which has been selected to maintain the enzyme activity stable along the duration of the assay. • dNTPs, deoxynucleotides 5′-triphosphate. • biotynilated oligo as primer. • increasing concentrations of test compounds/positive control.
After two hours of incubation at 37° degrees the telomeric repeats added are evaluated by hybridization in solution with a 3′-labeled short oligonucleotide probe.
The extent of hybridization is then quantitated by transferring the reaction mixture in a streptavidin-coated flash plate, where the binding between biotin and streptavidin occurs.
The telomerase activity is proportional to the radioactivity measured and the inhibitory activity of the compounds is evaluated as IC50 using the Sigma Plot fit program.
With the above-described method, IC50 values of the compounds of the present invention were determined.

T1 sequence (O14746 whole entry): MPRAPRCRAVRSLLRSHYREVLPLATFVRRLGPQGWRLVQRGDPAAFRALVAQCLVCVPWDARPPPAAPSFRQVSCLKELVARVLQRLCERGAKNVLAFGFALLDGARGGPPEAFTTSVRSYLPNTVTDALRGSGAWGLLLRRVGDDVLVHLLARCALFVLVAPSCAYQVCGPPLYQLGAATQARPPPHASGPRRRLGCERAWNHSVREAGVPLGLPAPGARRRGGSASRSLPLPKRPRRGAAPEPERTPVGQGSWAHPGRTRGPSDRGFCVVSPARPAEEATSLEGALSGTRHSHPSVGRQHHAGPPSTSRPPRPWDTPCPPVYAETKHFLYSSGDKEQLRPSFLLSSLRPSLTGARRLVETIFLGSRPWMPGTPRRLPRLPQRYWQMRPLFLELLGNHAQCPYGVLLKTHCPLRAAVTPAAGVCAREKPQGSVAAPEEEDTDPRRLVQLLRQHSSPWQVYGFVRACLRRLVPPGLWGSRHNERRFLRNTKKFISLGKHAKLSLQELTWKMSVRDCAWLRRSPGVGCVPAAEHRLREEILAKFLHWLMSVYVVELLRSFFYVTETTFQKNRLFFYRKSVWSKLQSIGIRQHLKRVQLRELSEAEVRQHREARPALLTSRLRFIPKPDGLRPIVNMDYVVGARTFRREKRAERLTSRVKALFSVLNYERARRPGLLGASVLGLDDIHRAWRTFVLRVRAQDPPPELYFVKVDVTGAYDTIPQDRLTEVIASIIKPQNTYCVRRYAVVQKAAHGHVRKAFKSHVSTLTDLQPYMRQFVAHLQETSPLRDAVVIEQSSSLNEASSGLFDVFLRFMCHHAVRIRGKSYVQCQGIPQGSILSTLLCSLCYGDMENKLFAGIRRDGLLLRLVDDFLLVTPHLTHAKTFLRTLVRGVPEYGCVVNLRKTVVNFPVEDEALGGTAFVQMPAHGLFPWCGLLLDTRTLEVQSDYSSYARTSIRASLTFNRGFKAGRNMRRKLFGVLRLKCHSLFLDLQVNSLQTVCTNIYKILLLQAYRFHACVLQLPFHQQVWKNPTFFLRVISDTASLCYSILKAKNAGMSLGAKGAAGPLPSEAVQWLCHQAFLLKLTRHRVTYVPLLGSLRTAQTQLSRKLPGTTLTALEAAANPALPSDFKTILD

| SMILES | IC50 [µM] |
| --- | --- |
| Nc1nc2c(c(=O)[nH]1)[n+](Cc1ccc(-c3ccccc3)cc1)cn2Cc1ccc(-c2ccccc2)cc1 [Compound 2, 2-amino-7,9-bis[(1,1′-biphenyl)-4-ylmethyl]-6-oxo-6,9-dihydro-1H-purin-7-ium bromide] | 3 |
| Nc1nc2c(c(=O)[nH]1)[n+](Cc1ccc3ccccc3c1)cn2Cc1ccc2ccccc2c1 [Compound 1, 2-amino-7,9-bis(2-naphthylmethyl)-6-oxo-6,9-dihydro-1H-purin-7-ium bromide] | 10 |
| Nc1nc2c(c(=O)[nH]1)[n+](Cc1ccc(Cl)c(Cl)c1)cn2Cc1ccc(Cl)c(Cl)c1 [Compound 4, 2-amino-7,9-bis(3,4-dichlorobenzyl)-6-oxo-6,9-dihydro-1H-purin-7-ium bromide] | 10 |
| Nc1nc2c(c(=O)[nH]1)[n+](Cc1ccc(-c3ccccc3)cc1)cn2Cc1ccc2ccccc2c1 [Compound 7, 2-amino-7-([1,1′-biphenyl]-4-ylmethyl)-9-(2-naphthylmethyl)-6-oxo-6,9-dihydro-1H-purin-7-ium bromide] | 4 |
